How the values were obtained:
Xenopus sp. = species: Xenopus sp.; assay: Inhibition of currents generated by 50 uM kainate in Xenopus oocytes injected with rat brain mRNA; format: functional, organism-based, frog
Mus musculus [1] = assay: In vivo effective dose required to protect 6 male CD1 mice against tonic convulsions following iv administration for a pretreatment time of 60 min; format: functional
Mus musculus [2] = assay: In vivo effective dose required to protect 6 male CD1 mice against tonic convulsions following iv administration for a pretreatment time of 5 min; format: functional
Mus musculus [3] = assay: In vivo effective dose required to protect 6 male CD1 mice against tonic convulsions following iv administration for a pretreatment time of 30 min; format: functional
[4] = target: Glutamate receptor ionotropic, AMPA (Rattus norvegicus, UniProt P19490+P19491+P19492+P19493); assay: Displacement of [3H]AMPA from Ionotropic glutamate receptor AMPA of rat cortical membranes; format: cell membranes, Membrane
Mus musculus [5] = assay: In vivo effective dose required to protect 6 male CD1 mice against tonic convulsions following ip administration for a pretreatment time of 30 min; format: functional
Glutamate NMDA receptor = assay: Displacement of [3H]DCKA from glycine NMDA receptor of rat cortical membranes; format: cell membranes, Membrane

O=C(O)c1cn2c3c(nc(O)c2n1)-c1ccccc1C3 showed an IC50 (Xenopus sp.) of 29 nM.
O=c1[nH]c2cc(-n3ccnc3)c([N+](=O)[O-])cc2[nH]c1=O [YM-90K] gave an ED50 (Mus musculus [1]) of 40 mg/kg, an IC50 (Xenopus sp.) of 260 nM and an ED50 (Mus musculus [2]) of 6.2 mg/kg. It also gave an ED50 (Mus musculus [3]) of 24 mg/kg.
For Oc1nc2c(n3ccnc13)Cc1ccccc1-2, the IC50 (Xenopus sp.) was 1800 nM.
For NC1c2ccccc2-c2nc(O)c3nc(C(=O)O)cn3c21 (configuration not stated), the IC50 [4] was 93 nM, the ED50 (Mus musculus [1]) was > 40 mg/kg and the ED50 (Mus musculus [5]) was 19 mg/kg. It also gave an IC50 (Xenopus sp.) of 130 nM, an IC50 (Glutamate NMDA receptor) of 158 nM and an ED50 (Mus musculus [2]) of 7 mg/kg. The ED50 (Mus musculus [3]) was 25 mg/kg.
Compound O=C(O)[C@@H]1C[C@H]2C[C@@H](CCc3nn[nH]n3)CC[C@H]2CN1 [TEZAMPANEL ANHYDROUS] has an IC50 (Xenopus sp.) of 233 nM.
O=C(Nc1ccccc1)NC1c2ccccc2-c2nc(O)c3nc(C(=O)O)cn3c21 (configuration not stated) gave an IC50 [4] of 159 nM, an ED50 (Mus musculus [5]) of 80 mg/kg and an IC50 (Xenopus sp.) of 30 nM. For the same compound, the IC50 (Glutamate NMDA receptor) was 18 nM.
O=C(O)c1cn2c3c(nc(O)c2n1)-c1ccccc1C3n1cccc1 (configuration not stated) showed an IC50 [4] of 55 nM, an ED50 (Mus musculus [1]) of 17 mg/kg and an ED50 (Mus musculus [5]) of 26 mg/kg. It also gave an IC50 (Xenopus sp.) of 60 nM, an IC50 (Glutamate NMDA receptor) of 32 nM and an ED50 (Mus musculus [2]) of 10 mg/kg. The ED50 (Mus musculus [3]) was 15 mg/kg.
Work on O=C(O)c1cn2c3c(nc(O)c2n1)-c1ccccc1C3N1CC=CC1=O (configuration not stated) yielded an IC50 [4] of 23 nM, an ED50 (Mus musculus [5]) of 20 mg/kg and an IC50 (Glutamate NMDA receptor) of 184 nM. It also gave an ED50 (Mus musculus [2]) of 7.7 mg/kg.
Work on O=C(O)CCC(=O)NC1c2ccccc2-c2nc(O)c3nc(C(=O)O)cn3c21 (configuration not stated) yielded an IC50 [4] of 35 nM, an ED50 (Mus musculus [1]) of 3 mg/kg and an ED50 (Mus musculus [5]) of 2.5 mg/kg. For the same compound, the IC50 (Xenopus sp.) was 6 nM, the IC50 (Glutamate NMDA receptor) was 230 nM and the ED50 (Mus musculus [2]) was 1.7 mg/kg. For the same compound, the ED50 (Mus musculus [3]) was 1.7 mg/kg.
O=C(O)c1cn2c3c(nc(O)c2n1)-c1ccccc1C3=O was tested, and the IC50 [4] was 580 nM, the IC50 (Xenopus sp.) was 320 nM and the IC50 (Glutamate NMDA receptor) was 422 nM.
Compound CC1(CCCCC(=O)O)c2ccccc2-c2nc(O)c3nc(C(=O)O)cn3c21 (configuration not stated) has an IC50 [4] of 242 nM, an ED50 (Mus musculus [1]) of 15 mg/kg and an ED50 (Mus musculus [5]) of 10 mg/kg. It also gave an IC50 (Xenopus sp.) of 22 nM, an IC50 (Glutamate NMDA receptor) of 134 nM and an ED50 (Mus musculus [2]) of 9.5 mg/kg.
In the case of O=c1[nH]c2cc(C(F)(F)F)c(N3CCOCC3)cc2n(CP(=O)(O)O)c1=O [FANAPANEL], the ED50 (Mus musculus [5]) is reported as 36 mg/kg, the IC50 (Xenopus sp.) is reported as 31 nM and the IC50 (Glutamate NMDA receptor) is reported as > 10000 nM. It also gave an ED50 (Mus musculus [2]) of 36 mg/kg.
For O=C(O)CCCO/N=C1\c2ccccc2-c2nc(O)c3nc(C(=O)O)cn3c21, the IC50 [4] was 44 nM, the ED50 (Mus musculus [5]) was > 80 mg/kg and the IC50 (Xenopus sp.) was 5 nM. The IC50 (Glutamate NMDA receptor) was 1400 nM.
In the case of O=Nc1c2n3cc(C(=O)O)[nH]c3c(O)nc-2c2ccccc12, the IC50 [4] is reported as 167 nM, the ED50 (Mus musculus [5]) is reported as > 80 mg/kg and the IC50 (Xenopus sp.) is reported as 130 nM. The IC50 (Glutamate NMDA receptor) was 593 nM.

Reference: ChEMBL document CHEMBL1134261, “Synthesis of anticonvulsive AMPA antagonists: 4-oxo-10-substituted-imidaz” (Bioorg Med Chem Lett, 2001)
